Results: patent publication US20230117034A1, “PYRAZOLOTRIAZINES” (Bayer Aktiengesellschaft, priority 2019, published 2023)
pIC50: −log10 of the molar value. Where two headings read alike, the source gives them in different places.

Tests used:
[1] = target: T1, CDK2/CycE (Homo sapiens, UniProt P24941); test: CDK2/CycE kinase assay (TR-FRET, 2 mM ATP); assay type: biochemical; settings: 2 mM ATP (high ATP); median; read-out: CDK2/CyclinE, 2 mM ATP (high ATP), IC50 (median)
T1 construct: purchased ProQinase GmbH (Freiburg, Germany); host or cells: insect cells (Sf9)
In short: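 GST-tagged human CDK2 and CycE from Sf9 cells, about 10 ng/ml, pre-incubated 15 min at 22 °C with compound in Tris/HCl pH 8.0 buffer. Reaction with 2 mM ATP and 0.75 µM biotinylated peptide for 25 min at 22 °C. Phospho-RB antibody TR-FRET (665/620 nm ratio) read after 1 h; data normalised to no-inhibitor and no-enzyme controls.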

[2] = system: CAL-120, human breast adenocarcinoma cells; test: Proliferation assay CAL-120 (crystal violet, 4 days); assay type: cell-based; settings: CAL-120 cells, median, read-out: Prolif-CAL-120, IC50-[mol/l] (median)
In short: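 Cells seeded at 4,000/well in medium with 10% FCS; after 24 h, compounds added at 0.01-10 µmol/L (0.1% DMSO) for 4 days. Glutaraldehyde-fixed, crystal violet-stained, absorbance at 595 nm normalized to zero-point plate (0%) and untreated cells (100%); IC50 by 4-parameter fit.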

[3] = target: T2, CDK12 (nuclear staining in CAL-120 cells) (Homo sapiens, UniProt Q9NYV4); test: CDK12 nuclear protein level: immunofluorescence/high content analysis (CAL-120); assay type: cell-based; settings: for DC50: CAL-120 cells, 24 h, immunofluorescence, 50% reduction of nuclear CDK12 staining intensity, median, read-out: CDK12 degradation IF, DC50- [mol/l] (median); for (IC50 CDK12 high ATP) to (Degradation DC50 CDK12) ratio: ratio of IC50 CDK12 high ATP kinase assay to DC50 CDK12 degradation (IF, CAL-120)
T2 construct: endogenous in cells; host or cells: CAL-120 human breast cancer cells (DSMZ ACC 459)
In short: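 CAL-120 cells were treated with compound for 24 h at 37 °C, fixed with PFA and immunostained for CDK12. Nuclear CDK12 intensity was quantified by automated image analysis and normalized to DMSO and control. DC50 is the concentration giving 50% reduction of nuclear staining.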

T2 sequence (Q9NYV4 whole entry): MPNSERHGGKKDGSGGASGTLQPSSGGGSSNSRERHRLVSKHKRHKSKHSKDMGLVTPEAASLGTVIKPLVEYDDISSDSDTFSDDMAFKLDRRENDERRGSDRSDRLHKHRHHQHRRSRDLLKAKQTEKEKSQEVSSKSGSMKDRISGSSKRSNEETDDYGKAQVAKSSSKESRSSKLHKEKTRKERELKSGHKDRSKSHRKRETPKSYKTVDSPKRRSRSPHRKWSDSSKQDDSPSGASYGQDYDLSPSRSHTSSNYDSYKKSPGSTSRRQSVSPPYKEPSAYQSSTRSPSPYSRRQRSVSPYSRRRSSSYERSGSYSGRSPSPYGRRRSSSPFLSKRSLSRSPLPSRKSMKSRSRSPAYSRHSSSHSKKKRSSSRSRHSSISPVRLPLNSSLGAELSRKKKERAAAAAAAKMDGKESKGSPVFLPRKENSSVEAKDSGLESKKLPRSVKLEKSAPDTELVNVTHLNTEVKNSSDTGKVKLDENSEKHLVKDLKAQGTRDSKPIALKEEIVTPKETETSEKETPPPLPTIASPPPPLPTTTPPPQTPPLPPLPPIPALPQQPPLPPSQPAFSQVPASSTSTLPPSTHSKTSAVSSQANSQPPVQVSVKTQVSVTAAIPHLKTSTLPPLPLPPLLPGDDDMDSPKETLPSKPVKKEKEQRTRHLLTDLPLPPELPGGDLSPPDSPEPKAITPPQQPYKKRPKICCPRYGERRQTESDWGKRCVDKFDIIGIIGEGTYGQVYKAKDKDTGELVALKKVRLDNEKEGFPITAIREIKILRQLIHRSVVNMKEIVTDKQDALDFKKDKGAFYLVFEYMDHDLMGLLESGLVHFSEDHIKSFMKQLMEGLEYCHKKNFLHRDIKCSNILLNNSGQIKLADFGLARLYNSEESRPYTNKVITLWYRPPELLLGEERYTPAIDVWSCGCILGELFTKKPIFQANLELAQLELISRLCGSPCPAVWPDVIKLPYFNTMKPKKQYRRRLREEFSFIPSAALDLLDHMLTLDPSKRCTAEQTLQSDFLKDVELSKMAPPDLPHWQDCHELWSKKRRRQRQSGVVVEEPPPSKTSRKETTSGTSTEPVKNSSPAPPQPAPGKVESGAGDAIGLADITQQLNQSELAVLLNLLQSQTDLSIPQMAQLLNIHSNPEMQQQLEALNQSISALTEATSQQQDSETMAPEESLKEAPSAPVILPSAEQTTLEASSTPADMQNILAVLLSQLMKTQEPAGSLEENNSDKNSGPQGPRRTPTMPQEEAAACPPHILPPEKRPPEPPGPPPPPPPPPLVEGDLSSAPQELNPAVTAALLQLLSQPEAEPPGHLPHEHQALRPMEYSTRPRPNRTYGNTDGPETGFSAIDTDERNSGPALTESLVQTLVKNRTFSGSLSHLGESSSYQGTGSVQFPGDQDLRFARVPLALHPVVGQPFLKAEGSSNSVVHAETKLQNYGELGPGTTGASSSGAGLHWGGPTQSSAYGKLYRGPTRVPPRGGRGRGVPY
T2 sequence (O75909 whole entry partner): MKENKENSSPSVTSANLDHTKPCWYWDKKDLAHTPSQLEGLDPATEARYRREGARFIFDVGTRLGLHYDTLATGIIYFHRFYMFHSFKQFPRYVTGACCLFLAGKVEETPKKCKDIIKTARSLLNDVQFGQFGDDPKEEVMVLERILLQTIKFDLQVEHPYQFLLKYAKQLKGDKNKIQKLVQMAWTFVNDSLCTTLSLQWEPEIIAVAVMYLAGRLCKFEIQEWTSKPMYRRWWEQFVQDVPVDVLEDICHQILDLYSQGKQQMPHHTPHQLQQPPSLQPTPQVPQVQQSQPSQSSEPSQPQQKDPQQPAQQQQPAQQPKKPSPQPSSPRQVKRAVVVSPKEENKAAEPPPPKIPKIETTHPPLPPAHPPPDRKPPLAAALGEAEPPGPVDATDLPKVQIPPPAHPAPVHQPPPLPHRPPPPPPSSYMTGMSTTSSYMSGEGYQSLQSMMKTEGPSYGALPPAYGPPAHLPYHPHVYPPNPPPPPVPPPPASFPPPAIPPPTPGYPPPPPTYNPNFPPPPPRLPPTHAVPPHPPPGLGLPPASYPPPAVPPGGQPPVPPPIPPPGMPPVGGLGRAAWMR

| Compound | pIC50 [1] | pIC50 ([2]; Homo sapiens, CAL-120, 96 h) | DC50 [3] [nM] | (IC50 CDK12 high ATP) to (Degradation DC50 CDK12) ratio [3] | pIC50 [2] |
| --- | --- | --- | --- | --- | --- |
| CC[C@H](CO)Nc1nc(NCc2nc3ccccc3[nH]2)n2ncc(Br)c2n1 [Example 368, (2R)-2-[(4-{[(1H-benzimidazol-2-yl)methyl]amino}-8-bromopyrazolo[1,5-a][1,3,5]triazin-2-yl)amino]butan-1-ol] | 6.05 | 7.02 | 9.39 | 516 | – |
| CN(CC(C)(C)O)c1nc(NCc2nc3cc(OC(F)(F)F)ccc3[nH]2)n2ncc(Br)c2n1 [Example 378, 1-{[8-bromo-4-({[5-(trifluoromethoxy)-1H-benzimidazol-2-yl]methyl}amino)pyrazolo[1,5-a][1,3,5]triazin-2-yl](methyl)amino}-2-methylpropan-2-ol] | 5.09 | 7.38 | 29.1 | 15 | – |
| CN1CCCN(c2nc(NCc3nc4ccccc4[nH]3)n3ncc(Br)c3n2)CC1 [Example 390, N-[(1H-benzimidazol-2-yl)methyl]-8-bromo-2-(4-methyl-1,4-diazepan-1-yl)pyrazolo[1,5-a][1,3,5]triazin-4-amine] | < 4.70 | 7.53 | 19.2 | >1041 | – |
| CN1CCN(c2nc(NCc3nc4c(F)cccc4[nH]3)n3ncc(Cl)c3n2)CC1.O=CO [Example 362, formic acid 8-chloro-N-[(4-fluoro-1H-benzimidazol-2-yl)methyl]-2-(4-methylpiperazin-1-yl)pyrazolo[1,5-a][1,3,5]triazin-4-amine] | 5.03 | 8.09 | 7.85 | 1673 | – |
| Fc1cc2nc(CNc3nc(N4CC5CCC(C4)N5)nc4c(Br)cnn34)[nH]c2cc1F [Example 355, 8-bromo-2-(3,8-diazabicyclo[3.2.1]octan-3-yl)-N-[(5,6-difluoro-1H-benzimidazol-2-yl)methyl]pyrazolo[1,5-a][1,3,5]triazin-4-amine] | < 4.73 | 8.66 | 23.5 | 178 | – |
| Fc1c(Cl)ccc2[nH]c(CNc3nc(N4CCOCC4)nc4c(C5CC5)cnn34)nc12 [Example 370, N-[(5-chloro-4-fluoro-1H-benzimidazol-2-yl)methyl]-8-cyclopropyl-2-(morpholin-4-yl)pyrazolo[1,5-a][1,3,5]triazin-4-amine] | < 4.70 | 8.44 | 2.19 | 77 | – |
| CN1CCN(c2nc(NCc3nc4cc(Cl)c(Cl)cc4[nH]3)n3ncc(Br)c3n2)CC1 [Example 330, 8-bromo-N-[(5,6-dichloro-1H-benzimidazol-2-yl)methyl]-2-(4-methylpiperazin-1-yl)pyrazolo[1,5-a][1,3,5]triazin-4-amine] | 4.86 | 8.61 | 2.89 | 1601 | – |
| Brc1cnn2c(NCc3nc4ccccc4[nH]3)nc(N3C[C@H]4CC[C@@H]3CN4)nc12 (single isomer, unassigned) [Example 335, N-[(1H-benzimidazol-2-yl)methyl]-8-bromo-2-{[1R or S-(1R*,4R*)]-2,5-diazabicyclo[2.2.2]octan-2-yl}pyrazolo[1,5-a][1,3,5]triazin-4-amine] | 5.55 | – | 8.34 | 798 | 8.37 |
| Fc1cccc2[nH]c(CNc3nc(N4CC5CCC(C4)N5)nc4c(Cl)cnn34)nc12 [Example 363, 8-chloro-2-(3,8-diazabicyclo[3.2.1]octan-3-yl)-N-[(4-fluoro-1H-benzimidazol-2-yl)methyl]pyrazolo[1,5-a][1,3,5]triazin-4-amine] | 5.06 | 8.14 | 11.9 | 279 | – |
| CN1CCN(c2nc(NCc3nc4c(F)c(Cl)ccc4[nH]3)n3ncc(Br)c3n2)CC1 [Example 373, 8-bromo-N-[(5-chloro-4-fluoro-1H-benzimidazol-2-yl)methyl]-2-(4-methylpiperazin-1-yl)pyrazolo[1,5-a][1,3,5]triazin-4-amine] | 5.12 | 8.71 | 1.12 | 2719 | – |
| FC(F)(F)c1ccc2[nH]c(CNc3nc(N4CCOCC4)nc4c(Br)cnn34)nc2c1 [Example 339, 8-bromo-2-(morpholin-4-yl)-N-{[5-(trifluoromethyl)-1H-benzimidazol-2-yl]methyl}pyrazolo[1,5-a][1,3,5]triazin-4-amine] | 5.17 | 8.32 | 7.59 | 204 | – |
| CN1C2CCC1CN(c1nc(NCc3nc4c(F)c(F)ccc4[nH]3)n3ncc(C(F)(F)F)c3n1)C2 [Example 356, N-[(4,5-difluoro-1H-benzimidazol-2-yl)methyl]-2-(8-methyl-3,8-diazabicyclo[3.2.1]octan-3-yl)-8-(trifluoromethyl)pyrazolo[1,5-a][1,3,5]triazin-4-amine] | < 4.70 | 8.68 | 6.68 | 734 | – |
| C[C@H]1CN(C)CCN1c1nc(NCc2nc3c(F)cccc3[nH]2)n2ncc(C(F)(F)F)c2n1 [Example 388, 2-[(2S)-2,4-dimethylpiperazin-1-yl]-N-[(4-fluoro-1H-benzimidazol-2-yl)methyl]-8-(trifluoromethyl)pyrazolo[1,5-a][1,3,5]triazin-4-amine] | < 4.70 | 7.65 | 10.4 | 655 | – |
| CN1CCN(c2nc(NCc3nc4c(F)c(Cl)ccc4[nH]3)n3ncc(C4CC4)c3n2)CC1 [Example 371, N-[(5-chloro-4-fluoro-1H-benzimidazol-2-yl)methyl]-8-cyclopropyl-2-(4-methylpiperazin-1-yl)pyrazolo[1,5-a][1,3,5]triazin-4-amine] | < 4.70 | 8.41 | 4.16 | 1263 | – |
| Cc1cc2nc(CNc3nc(N4CCOCC4)nc4c(Br)cnn34)[nH]c2cc1C [Example 340, 8-bromo-N-[(5,6-dimethyl-1H-benzimidazol-2-yl)methyl]-2-(morpholin-4-yl)pyrazolo[1,5-a][1,3,5]triazin-4-amine] | 5.94 | 8.47 | 7.8 | 79 | – |
| FC(F)(F)Oc1cccc2[nH]c(CNc3nc(N4CCOCC4)nc4c(Br)cnn34)nc12 [Example 375, 8-bromo-2-(morpholin-4-yl)-N-{[4-(trifluoromethoxy)-1H-benzimidazol-2-yl]methyl}pyrazolo[1,5-a][1,3,5]triazin-4-amine] | 4.92 | 7.16 | 58.1 | 79 | – |
| CN(CC(C)(C)O)c1nc(NCc2nc3c(F)c(Cl)ccc3[nH]2)n2ncc(C3CC3)c2n1 [Example 387, 1-[(4-{[(5-chloro-4-fluoro-1H-benzimidazol-2-yl)methyl]amino}-8-cyclopropylpyrazolo[1,5-a][1,3,5]triazin-2-yl)(methyl)amino]-2-methylpropan-2-ol] | 5.27 | 8.31 | 3.83 | 61 | – |
